Measurements from ChEMBL document CHEMBL5726389, “Heterocyclic compounds and uses thereof” (2017).

Assay: The TLC plates are then dried, exposed to a phosphorimager screen (Storm, Amersham), and quantitated. For each compound, kinase activity is measured at 10-12 inhibitor concentrations representing two-fold dilutions from the highest concentration tested (typically, 200 μM).

Row | IC50 | SMILES
1 | in the range around 5.5 µM | C[C@H](NC(=O)c1c(N)nn2cccnc12)c1cc2cccc(Cl)c2c(=O)n1CCNS(C)(=O)=O
2 | in the range around 5.5 µM | C[C@H](NC(=O)c1c(N)nn2cccnc12)c1cc2cccc(OCC(F)(F)F)c2c(=O)n1-c1ccccc1
3 | in the range around 5.5 µM | C[C@H](NC(=O)c1c(N)nn2cccnc12)c1nc2cccc(Cl)c2c(=O)n1-c1ccc(F)c(F)c1
4 | in the range around 5.5 µM | C[C@H](NC(=O)c1nccnc1N)c1nc2cccc(Cl)c2c(=O)n1-c1ccc(F)cc1
5 | in the range around 5.5 µM | C[C@H](NC(=O)c1c(N)nn2cccnc12)c1cc2cccc(Cl)c2c(=O)n1-c1cccc(NS(C)(=O)=O)c1
6 | in the range around 5.5 µM | C[C@H](NC(=O)c1c(N)nn2cccnc12)c1nc2c(Cl)cccc2c(=O)n1-c1ccccc1
7 | in the range around 0.75 µM | C[C@H](NC(=O)c1c(N)nn2cccnc12)c1cc2cccc(Cl)c2c(=O)n1CCS(=O)(=O)N(C)C
8 | in the range around 5.5 µM | C[C@H](NC(=O)c1c(N)nn2cccnc12)c1cc2cccc(Cl)c2c(=O)n1CCCS(C)(=O)=O
9 | in the range around 5.5 µM | C[C@H](NC(=O)c1c(N)nn2cccnc12)c1oc2ccc(F)cc2c(=O)c1-c1ccccc1
10 | in the range around 5.5 µM | C[C@H](NC(=O)c1nccnc1N)c1oc2ccc(F)cc2c(=O)c1-c1ccccc1
11 | in the range around 5.5 µM | Cc1cccc2c(=O)n(-c3ccccc3)c([C@H](C)NC(=O)c3c(N)nn4cccnc34)nc12
12 | in the range around 5.5 µM | C[C@H](NC(=O)c1nc(C2CC2)cnc1N)c1cc2cccc(Cl)c2c(=O)n1-c1ccccc1
13 | in the range around 5.5 µM | C#CCCn1c([C@H](C)NC(=O)c2c(N)nn3cccnc23)cc2cccc(Cl)c2c1=O
14 | in the range around 5.5 µM | C[C@H](NC(=O)c1c(N)nn2cccnc12)c1cc2cccc(Cl)c2c(=O)n1-c1ccccc1NS(C)(=O)=O
15 | in the range around 5.5 µM | C[C@H](NC(=O)c1c(N)nn2cccnc12)c1cc2cccc(CC(=O)C(C)(C)C)c2c(=O)n1-c1ccccc1
16 | in the range around 5.5 µM | C[C@H](NC(=O)c1c(N)nn2cccnc12)c1cc2cccc(Cl)c2c(=O)n1C1CC(NS(C)(=O)=O)C1 (stereo partly specified)
17 | in the range around 5.5 µM | Cc1ccnc2c(C(=O)N[C@@H](C)c3cc4cccc(Cl)c4c(=O)n3-c3ccccc3)c(N)nn12
18 | in the range around 5.5 µM | C[C@H](NC(=O)c1c(N)nn2cccnc12)c1cc2cccc(Cl)c2c(=O)n1CCc1c[nH]cn1
19 | in the range around 5.5 µM | C[C@H](NC(=O)c1c(N)nn2cccnc12)c1nc2ccccc2c(=O)n1-c1ccccc1

Row | IC50 | SMILES
20 | in the range around 5.5 µM | C[C@H](NC(=O)c1c(N)nn2cccnc12)c1cc2cccc(-c3cnn(CC#N)c3)c2c(=O)n1-c1ccccc1
21 | in the range around 5.5 µM | CC(=O)Cc1cccc2nc([C@H](C)NC(=O)c3c(N)nn4cccnc34)n(-c3ccccc3)c(=O)c12
22 | in the range around 0.75 µM | C[C@H](NC(=O)c1c(N)nn2cccnc12)c1cc2cccc(Cl)c2c(=O)n1CCCNS(C)(=O)=O
23 | in the range around 5.5 µM | C[C@H](NC(=O)c1c(N)nn2cccnc12)c1cc2cccc(Cl)c2c(=O)n1-c1ccccc1O
24 | in the range around 5.5 µM | C[C@H](NC(=O)c1c(N)nn2cccnc12)c1cc2cccc(Cl)c2c(=O)n1CCc1ccccc1
25 | in the range around 5.5 µM | C[C@H](NC(=O)c1c(N)nn2cccnc12)c1cc2cccc(Cl)c2c(=O)n1CCc1nnn(C)n1
26 | in the range around 5.5 µM | CNS(=O)(=O)CCn1c([C@H](C)NC(=O)c2c(N)nn3cccnc23)cc2cccc(Cl)c2c1=O
27 | in the range around 5.5 µM | C[C@H](NC(=O)c1c(N)nn2cccnc12)c1cc2cccc(Cl)c2c(=O)n1CCc1noc(C(C)(C)C)n1
28 | in the range around 5.5 µM | C[C@H](NC(=O)c1c(N)nn2cccnc12)c1cc2cccc(Cl)c2c(=O)n1CCc1ncn[nH]1
29 | in the range around 5.5 µM | C[C@H](NC(=O)c1c(N)nn2cccnc12)c1nc2ccc(Cl)cc2c(=O)n1-c1ccccc1
30 | in the range around 5.5 µM | C[C@H](NC(=O)c1c(N)nn2cccnc12)c1nc2cccc(N3CCOCC3)c2c(=O)n1-c1ccccc1
31 | in the range around 5.5 µM | C[C@H](NC(=O)c1c(N)nn2cccnc12)c1cc2cccc(Cl)c2c(=O)n1-c1ccc(S(C)(=O)=O)cc1
32 | in the range around 5.5 µM | C[C@H](NC(=O)c1c(N)nn2cccnc12)c1cc2cccc(Cl)c2c(=O)n1-c1cccc(O)c1
33 | in the range around 5.5 µM | Cc1ccc(-n2c([C@H](C)NC(=O)c3c(N)nn4cccnc34)cc3cccc(Cl)c3c2=O)cc1
34 | in the range around 5.5 µM | C[C@H](NC(=O)c1c(N)nn2cccnc12)c1cc2cccc(Cl)c2c(=O)n1-c1ccccc1F
35 | in the range around 5.5 µM | C[C@H](NC(=O)c1c(N)nn2cccnc12)c1cc2cccc(Cl)c2c(=O)n1CCc1nnn[nH]1
36 | in the range around 5.5 µM | C[C@H](NC(=O)c1c(N)nn2cccnc12)c1cc2cccc(Cl)c2c(=O)n1CCc1nnnn1C
37 | in the range around 5.5 µM | C[C@H](NC(=O)c1nccnc1N)c1cc2cccc(C(F)(F)F)c2c(=O)n1-c1ccccc1
38 | in the range around 5.5 µM | CCn1cc(-c2cccc3cc([C@H](C)NC(=O)c4c(N)nn5cccnc45)n(-c4ccccc4)c(=O)c23)cn1

Row | IC50 | SMILES
39 | in the range around 5.5 µM | Cc1noc(CCn2c([C@H](C)NC(=O)c3c(N)nn4cccnc34)cc3cccc(Cl)c3c2=O)n1
40 | in the range around 5.5 µM | Cc1cccc(-n2c([C@H](C)NC(=O)c3c(N)nn4cccnc34)cc3cccc(Cl)c3c2=O)c1
41 | in the range around 5.5 µM | C[C@H](NC(=O)c1c(N)nn2cccnc12)c1cc2cccc(Cl)c2c(=O)n1-c1cccc(S(C)(=O)=O)c1
42 | in the range around 5.5 µM | C[C@H](NC(=O)c1c(N)nn2cccnc12)c1cc2cccc(Cl)c2c(=O)n1CCS(N)(=O)=O
43 | in the range around 5.5 µM | C[C@H](NC(=O)c1c(N)nn2cccnc12)c1cc2cccc(Cl)c2c(=O)n1Cc1nnn[nH]1
44 | in the range around 5.5 µM | Cc1ccccc1-n1c([C@H](C)NC(=O)c2c(N)nn3cccnc23)cc2cccc(Cl)c2c1=O
45 | in the range around 5.5 µM | CC(C)C(=O)Cc1cccc2cc([C@H](C)NC(=O)c3c(N)nn4cccnc34)n(-c3ccccc3)c(=O)c12
46 | in the range around 5.5 µM | CCS(=O)(=O)NCCn1c([C@H](C)NC(=O)c2c(N)nn3cccnc23)cc2cccc(Cl)c2c1=O
47 | in the range around 5.5 µM | C[C@H](NC(=O)c1c(N)nn2cccnc12)c1cc2cccc(Cl)c2c(=O)n1-c1ccc(NS(C)(=O)=O)cc1
48 | in the range around 5.5 µM | C[C@H](NC(=O)c1c(N)nn2cccnc12)c1cc2cccc(Cl)c2c(=O)n1CCc1cnn[nH]1
49 | in the range around 5.5 µM | C[C@H](NC(=O)c1c(N)nn2cccnc12)c1nc2cccc(Cl)c2c(=O)n1-c1ccc(F)cc1
50 | in the range around 5.5 µM | C[C@H](NC(=O)c1c(N)ncn2ccnc12)c1cc2cccc(Cl)c2c(=O)n1-c1ccccc1
51 | in the range around 5.5 µM | C[C@H](NC(=O)c1c(N)nn2cccnc12)c1cc2cccc(Cl)c2c(=O)n1-c1ccc(O)cc1
52 | in the range around 5.5 µM | C[C@H](NC(=O)c1c(N)nn2cccnc12)c1cc2cccc(-c3cnn(CC(F)(F)F)c3)c2c(=O)n1-c1ccccc1
53 | in the range around 5.5 µM | C[C@H](NC(=O)c1c(N)nn2cccnc12)c1cc2cccc(Cl)c2c(=O)n1-c1cccnc1
54 | in the range around 5.5 µM | C[C@H](NC(=O)c1c(N)nn2cccnc12)c1cc2cccc(Cl)c2c(=O)n1C1CCC1
55 | in the range around 5.5 µM | C[C@H](NC(=O)c1c(N)nn2cccnc12)c1cc2cccc(OCc3cnn(C)c3)c2c(=O)n1-c1ccccc1
56 | in the range around 5.5 µM | COc1ccccc1-n1c([C@H](C)NC(=O)c2c(N)nn3cccnc23)cc2cccc(Cl)c2c1=O
